Experimental data as given in US11992494B2, “Cyclopentathiophene carboxamide derivatives as platelet activating factor receptor antagonists” (Boehringer Ingelheim International GmbH, priority 2021, dated 2024).
Read-outs that look alike come from different tables or passages of the source.

What was measured:
PAFR [1] = target: T1, PAFR (Homo sapiens, UniProt P25105); conditions: cited from earlier work; for Ki: literature values (Weber et al.; EP0368175A1), read-out: PAFR affinity (Ki)
Target sequence in this assay (P25105 whole entry, species assumed): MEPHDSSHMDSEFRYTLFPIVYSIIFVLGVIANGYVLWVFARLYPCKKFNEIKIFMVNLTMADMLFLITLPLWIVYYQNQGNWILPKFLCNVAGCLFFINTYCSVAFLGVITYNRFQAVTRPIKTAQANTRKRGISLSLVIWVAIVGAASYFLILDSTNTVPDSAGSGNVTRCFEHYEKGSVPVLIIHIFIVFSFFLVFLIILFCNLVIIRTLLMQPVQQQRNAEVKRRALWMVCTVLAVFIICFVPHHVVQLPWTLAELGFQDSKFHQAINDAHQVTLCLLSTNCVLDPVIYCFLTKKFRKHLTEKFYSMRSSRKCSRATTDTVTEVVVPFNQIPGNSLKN

[2] = Evaluation of chemical stability (solution state stress conditions, HPLC); assay type: physicochemical
Description: Evaluation of Chemical Stability Within solution state stability studies the influence of temperature, pH and light exposure are analyzed. Stress conditions are applied in order to get a fast signal of possible chemical decomposition via hydrolytical, oxidative or photodegradative pathways. […] The stressed/stored samples are analysed by a stability indicative chiral or achiral HPLC-method, as appropriate. Degradation studies are used to simulate chemical stability of compounds in the acidic part of the gastrointestinal tract. The compounds of the invention show high chemical stability in acidic aqueous media (pH value ca. 1.2) what makes their application as medical drugs to treat human diseases less restricted and troublesome. […] Compound is dissolved in an HPLC vial in a mixture of acetonitrile/0.1 M aqueous HCl (ratio: 2:3; pH ca. 1.2) to get a concentration of approximately 0.25 mg/ml. The vial is then transferred into an HPLC autosampler system and maintained at the desired temperature of, e.g., 40° C. A first sample is taken and injected immediately into a standard HPLC system with a UV DAD detector. A further sample is injected after 24 hours. Amount of degraded compound is measured by determining the recovery rate of compound [%] for the 24 h injection using an HPLC standard gradient method. Therefore the peak area of the main peak for the first injection (AUt0) is determined and set as 100%. Peak area of the main peak is determined also for the 24 h injection (AU24 h) and expressed as fraction of (AU24 h)/(AUt0)[%]. Analogously, the amount of degraded compound is determined for stability examinations running for more than 1 day, e.g., for 3 days.

PAFR [3] = target: T1, PAFR; assay: cellular HTRF IP1 assay: inhibition of PAFR activation by PAF C-16 ligand (endpoint assay); assay type: cell-based; design: expressed in transfected cells; host or cells: HEK293
Method in brief: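 HEK293 cells overexpressing human PAFR were preincubated with compound (1% DMSO) 90 min at 37°C, then challenged with 11 nM PAF C-16 for 60 min in HBSS/20 mM HEPES pH 7.4/50 mM LiCl/0.1% BSA. IP1 accumulation read by HTRF (665/620 nm emission).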
Target sequence in this assay (P25105 whole entry): as the sequence (P25105 whole entry, species assumed) above

PAFR [4] = target: T1, PAFR; conditions: PAFR binding, Miyazawa et al.; cited from earlier work
Target sequence in this assay (P25105 whole entry, species assumed): as above

[5] = HEK293 cells overexpressing human PAFR, PAF ligand 11 nM, Table 2
[6] = dedicated head-to-head comparison assay run: cyclopropylene vs di-methyl / cyclobutylene analogues

SMILES: Cc1nnc2n1-c1sc3c(c1C(c1ccccc1Cl)=NC2C)CC(C(=O)N1CCOCC1)C3 (single isomer, unassigned; (-)) [(−) 9dB]
- Ki (PAFR [1]): 8 nM

SMILES: Cc1nnc2n1-c1sc3c(c1C(c1ccccc1Cl)=NC21CC1)C[C@H](C(=O)N1CCOCC1)C3 [Example 114]
- Amount of degradation after 3 d at 40° C. in ACN/0.1M aq. HCl ([2]; 40° C., ACN/0.1M aq. HCl (pH ca. 1.2)): 4%
- IC50 (PAFR [3]; [5]): 7.2 nM
- IC50 (PAFR [3]; [6]): 6.6 nM

SMILES: Cc1nnc2n1-c1sc3c(c1C(c1ccccc1Cl)=NC2C)CC(C(=O)N1CCOCC1)C3 (single isomer, unassigned; (+)) [(+) 9dB]
- Ki (PAFR [1]): 3000 nM

SMILES: Cc1nnc2n1-c1sc3c(c1C(c1ccccc1Cl)=NC2C)CCN(C(=O)OC(C)(C)C#N)C3 (single isomer, unassigned) [compound 34 of Miyazawa et al. (−) isomer]
- IC50 (PAFR [4]): 500 nM

SMILES: Cc1nnc2n1-c1sc3c(c1C(c1ccccc1Cl)=NC2)CC(C(=O)N1CCOCC1)C3 (single isomer, unassigned; (-)) [(−)-bepafant]
- Ki (PAFR [1]): 14 nM

SMILES: Cc1nnc2n1-c1sc3c(c1C(c1ccccc1Cl)=NC2)CC(C(=O)N1CCOCC1)C3 (racemic) [WEB 2170 (bepafant) racemate]
- Ki (PAFR [1]): 15 nM

SMILES: C#CCCOC(=O)N1CCc2c(sc3c2C(c2ccccc2Cl)=NC(C)c2nnc(C)n2-3)C1 (racemic) [compound 22 of Miyazawa et al. racemate]
- IC50 (PAFR [4]): 1.5 nM

SMILES: Cc1nnc2n1-c1sc3c(c1C(c1ccccc1Cl)=NC2C)CCN(C(=O)OC(C)(C)C#N)C3 (single isomer, unassigned) [compound 34 of Miyazawa et al. (+) isomer]
- IC50 (PAFR [4]): 3.1 nM

SMILES: C#CCCOC(=O)N1CCc2c(sc3c2C(c2ccccc2Cl)=NC(CC)c2nnc(C)n2-3)C1 (racemic) [compound 24 of Miyazawa et al. racemate]
- IC50 (PAFR [4]): 22 nM

SMILES: C#CCCOC(=O)N1CCc2c(sc3c2C(c2ccccc2Cl)=NC(C)c2nnc(C)n2-3)C1 (single isomer, unassigned) [compound 22 of Miyazawa et al. (−) isomer]
- IC50 (PAFR [4]): 82 nM

SMILES: Cc1nnc2n1-c1sc(CCC(=O)N3CCOCC3)cc1C(c1ccccc1Cl)=NC2C (stereo not drawn) [example 1 of EP0368175A1 (−)-enantiomer]
- binding to the PAFR of (−)-enantiomer relative to (+)-enantiomer (PAFR [1]; see EP0368175A1): (−)-enantiomer 35 times stronger binding

SMILES: Cc1nnc2n1-c1sc3c(c1C(c1ccccc1Cl)=NC2C)CC(C(=O)N1CCOCC1)C3 (single isomer, unassigned; (+)) [(+) 9dA]
- Ki (PAFR [1]): 400 nM

SMILES: C#CCCOC(=O)N1CCc2c(sc3c2C(c2ccccc2Cl)=NCc2nnc(C)n2-3)C1 [compound 18 of Miyazawa et al.]
- IC50 (PAFR [4]): 3.8 nM

SMILES: C#CCCOC(=O)N1CCc2c(sc3c2C(c2ccccc2Cl)=NC(C)(C)c2nnc(C)n2-3)C1 [compound 23 of Miyazawa et al.]
- IC50 (PAFR [4]): 160 nM

SMILES: C#CCCOC(=O)N1CCc2c(sc3c2C(c2ccccc2Cl)=NC(C)c2nnc(C)n2-3)C1 (single isomer, unassigned) [compound 35 of Miyazawa et al. (−) isomer]
- IC50 (PAFR [4]): 420 nM

SMILES: C#CCCOC(=O)N1CCc2c(sc3c2C(c2ccccc2Cl)=NC(C)c2nnc(C)n2-3)C1 (single isomer, unassigned) [compound 35 of Miyazawa et al. (+) isomer]
- IC50 (PAFR [4]): 2.8 nM

SMILES: CCCN(CCC)C(=O)[C@@H]1Cc2sc3c(c2C1)C(c1ccccc1Cl)=NC1(CC1)c1nnc(C)n1-3 [Example 104, (13′S)-9′-(2-chlorophenyl)-3′-methyl-N, N-dipropyl-16′-thia-2′,4′,5′,8′-tetraazaspiro[cyclopropane-1,7′-tetracyclo[8.6.0.0^2,6.0^11,15]hexadecane]-1′(10′),3′,5′,8′,11′(15′)-pentaene-13′-carboxamide]
- Amount of degradation after 3 d at 40° C. in ACN/0.1M aq. HCl ([2]; 0.25 mg/ml, pH 1.2): 1.5%
- IC50 (PAFR [3]; [5]): 0.9 nM

SMILES: Cc1nnc2n1-c1sc3c(c1C(c1ccccc1Cl)=NC2C)CC(C(=O)N1CCOCC1)C3 (single isomer, unassigned; (-)) [(−) 9dA]
- Ki (PAFR [1]): 70 nM

SMILES: Cc1nnc2n1-c1sc3c(c1C(c1ccccc1Cl)=NC21CC1)C[C@H](C(=O)N1C[C@@H](C)O[C@@H](C)C1)C3 [Example 13]
- IC50 (PAFR [3]; [5]): 4.8 nM

SMILES: Cc1nnc2n1-c1sc3c(c1C(c1ccccc1Cl)=NC2)CC(C(=O)N1CCOCC1)C3 (single isomer, unassigned; (+)) [(+)-bepafant]
- Ki (PAFR [1]): 660 nM

SMILES: Cc1nnc2n1-c1sc3c(c1C(c1ccccc1Cl)=NC21CC1)C[C@H](C(=O)N[C@@H]1c2ccccc2C[C@@H]1O)C3 [Example 50]
- IC50 (PAFR [3]; [5]): 2.4 nM

SMILES: Cc1nnc2n1-c1sc3c(c1C(c1ccccc1Cl)=NC21CC1)C[C@H](C(=O)N[C@@H]1CCc2cc(C#N)ccc21)C3 [Example 63]
- IC50 (PAFR [3]; [5]): 1.7 nM

SMILES: Cc1cc2n(n1)CC(NC(=O)[C@@H]1Cc3sc4c(c3C1)C(c1ccccc1Cl)=NC1(CC1)c1nnc(C)n1-4)CC2 (some centres unmarked) [Example 23]
- IC50 (PAFR [3]; [5]): 9.9 nM

SMILES: Cc1nnc2n1-c1sc3c(c1C(c1ccccc1Cl)=NC21CC1)C[C@H](C(=O)N(C)C1CCC1)C3 [Example 21]
- IC50 (PAFR [3]; [5]): 1.1 nM

SMILES: Cc1nnc2n1-c1sc3c(c1C(c1ccccc1Cl)=NC21CC1)C[C@H](C(=O)N[C@H]1CCC(F)(F)C1)C3 [Example 24]
- IC50 (PAFR [3]; [5]): 2 nM

SMILES: CCCN(C(=O)[C@@H]1Cc2sc3c(c2C1)C(c1ccccc1Cl)=NC1(CC1)c1nnc(C)n1-3)C1CCOCC1 [Example 115, (13′S)-9′-(2-chlorophenyl)-3′-methyl-N-(oxan-4-yl)-N-propyl-16′-thia-2′,4′,5′,8′-tetraazaspiro-[cyclopropane-1,7′-tetracyclo[8.6.0.0^2,6.0^11,15]hexadecane]-1′(10′),3′,5′,8′,11′(15′)-pentaene-13′-carboxamide]
- IC50 (PAFR [3]; [5]): 25 nM

SMILES: Cc1nnc2n1-c1sc3c(c1C(c1ccccc1Cl)=NC21CC1)C[C@H](C(=O)NC1CC2CCC(C1)O2)C3 (some centres unmarked) [Example 90]
- IC50 (PAFR [3]; [5]): 8.8 nM

SMILES: COc1cc(C2(NC(=O)[C@@H]3Cc4sc5c(c4C3)C(c3ccccc3Cl)=NC3(CC3)c3nnc(C)n3-5)CC2)ccn1 [Example 85]
- IC50 (PAFR [3]; [5]): 3.9 nM

SMILES: Cc1nnc2n1-c1sc3c(c1C(c1ccccc1Cl)=NC21CC1)C[C@H](C(=O)NC1(c2ccccn2)CC1)C3 [Example 87]
- IC50 (PAFR [3]; [5]): 4.9 nM
- IC50 (PAFR [3]; [6]): 5.6 nM

SMILES: Cc1nnc2n1-c1sc3c(c1C(c1cc(Br)ccc1Cl)=NC21CC1)C[C@H](C(=O)N1CCOCC1)C3 [Example 4, (13′S)-9′-(5-bromo-2-chlorophenyl)-3′-methyl-13′-(morpholine-4-carbonyl)-16′-thia-2′,4′,5′,8′-tetraazaspiro[cyclopropane-1,7′-tetracyclo[8.6.0.0^2,6.0^11,15]hexadecane]-1′(10′)3′,5′,8′,11′(15′)-pentaene]
- IC50 (PAFR [3]; [5]): 26 nM

SMILES: Cc1nnc2n1-c1sc3c(c1C(c1ccccc1Cl)=NC21CC1)C[C@H](C(=O)N1CCOCC12CC2)C3 [Example 127, (13′S)-9′-(2-chlorophenyl)-3′-methyl-13′-{7-oxa-4-azaspiro[2.5]octane-4-carbonyl}-16′-thia-2′,4′,5′,8′-tetraazaspiro[cyclopropane-1,7′-tetracyclo[8.6.0.0^2,6.0^11,15]hexadecane]-1′(10′),3′,5′,8′,11′(15′)-pentaene]
- IC50 (PAFR [3]; [5]): 5.8 nM

SMILES: Cc1nnc2n1-c1sc3c(c1C(c1ccccc1Cl)=NC21CC1)C[C@H](C(=O)N(C)C1CCCCC1)C3 [Example 44]
- IC50 (PAFR [3]; [5]): 1.3 nM

SMILES: CC(=O)N1CCC(N(C)C(=O)[C@@H]2Cc3sc4c(c3C2)C(c2ccccc2Cl)=NC2(CC2)c2nnc(C)n2-4)CC1 [Example 73]
- IC50 (PAFR [3]; [5]): 21 nM

SMILES: Cc1nnc2n1-c1sc3c(c1C(c1ccccc1Cl)=NC21CC1)C[C@H](C(=O)NC1(c2ccccc2)CC1)C3 [Example 46]
- IC50 (PAFR [3]; [5]): 2 nM

SMILES: C#CCCOC(=O)N1CCc2c(sc3c2C(c2ccccc2Cl)=NC(CC)(CC)c2nnc(C)n2-3)C1 [compound 25 of Miyazawa et al.]
- IC50 (PAFR [4]): 290 nM

SMILES: C#CCCOC(=O)N1CCc2c(sc3c2C(c2ccccc2Cl)=NC(C)c2nnc(C)n2-3)C1 (single isomer, unassigned) [compound 22 of Miyazawa et al. (+) isomer]
- IC50 (PAFR [4]): 0.34 nM

SMILES: Cc1nnc2n1-c1sc3c(c1C(c1ccccc1Cl)=NC21CC1)C[C@H](C(=O)NC1CCn2nccc2C1)C3 (some centres unmarked) [Example 77]
- IC50 (PAFR [3]; [5]): 10 nM

SMILES: Cc1nnc2n1-c1sc3c(c1C(c1ccccc1Cl)=NC21CC1)C[C@H](C(=O)NC1CCC2(CC1)CC2)C3 [Example 69]
- IC50 (PAFR [3]; [5]): 1.5 nM

SMILES: Cc1nnc2n1-c1sc3c(c1C(c1ccccc1Cl)=NC21CC1)C[C@H](C(=O)N[C@H]1CCCOC1)C3 [Example 29]
- IC50 (PAFR [3]; [5]): 8.4 nM

SMILES: Cc1nnc2n1-c1sc3c(c1C(c1ccccc1Cl)=NC21CC1)C[C@H](C(=O)NC1(c2ccc(Cl)cn2)CC1)C3 [Example 35]
- IC50 (PAFR [3]; [5]): 1.6 nM
